From patent publication US20150366962A1 (priority 2014, published 2015)

Key:
[1] = system: CD8+ OT-1 T cells cultured with BMDCs; assay: OT-1 CD8 T cell proliferation assay (antigen cross-presentation); assay type: cell-based, C57BL/6 mice; conditions: BMDCs with 1Z105 2 μM or MPLA 1 μg/ml overnight, OVA 10 μg/ml, 3 days
Experimental: (§1) (A) Upregulation of antigen uptake by 1Z105. BMDCs prepared from C57BL/6 mice were incubated with 10 μM 1Z105 or MPLA overnight. Antigen, Alexa Fluor 488-conjugated ovalbumin (OVA-488), was added to the culture for the last 30 min of incubation. The cells were washed and stained for CD11c. OVA-associated dendritic cells in the CD11c^hi population were evaluated by flow cytometry. Cells incubated at 4° C. served as a negative control. (B and C) Enhancement of expression of costimulatory molecules by 1Z105.WT (B) or Tlr4^−/− (C) BMDCs were incubated with 1Z105 (10 or 2 μM) or MPLA (0.04 μg/ml) overnight, and expression of CD40 and CD86 was assessed by flow cytometric assay. (D) 1Z105 promotes antigen cross-presentation. Wild-type BMDCs were incubated with 1Z105 (2 μM) overnight, and OVA (10 μg/ml) was added to the culture for the last 4 h of incubation. The cells were washed and cultured with CFSE-labeled CD8^+ OT1Tcells for 3 days. OT-1 T-cell proliferation was monitored by flow-cytometric assay. […] Cytokine release of IL-1β, IL-6, IL-8, IL-12p70, and TNF-α was determined by Luminex bead assay. […]
Naive CD8^+ T cells from OT-1 C57BL/6 mice were isolated using an EasySep Mouse CD8^+ T Cell Isolation Kit and stained with carboxyfluorescein succinimidyl ester (CFSE) (10 μM). […] OT-1 T cell proliferation was monitored by CFSE dilution using a flow cytometer.

[2] = system: Purified CD4+ or CD8+ T cells; assay: Purified CD4+ or CD8+ T cell proliferation; assay type: cell-based; conditions: in the presence of CD3 ligation
Experimental: Capability for induction of antigen specific CD8 T cells is one of the ideal features for adjuvants for cancer or herpes simplex virus infection. Thus, 1V270 and 1Z105 were examined to determine whether the agonists can directly induce T cell proliferation. Purified CD4+ or CD8+ T cells were incubated with 1Z105, 1V270 alone or in combination.

[3] = system: PBMC; assay: IL-8 release by human PBMC; assay type: cell-based
Description: To confirm the activities of 1Z105/1V270 combined adjuvant in human cells, PBMC were stimulated with these agonists.

[4] = system: Mouse bone marrow-derived dendritic cells (mBMDCs); assay: Costimulatory-molecule (CD40, CD86) expression in mouse BMDCs; assay type: cell-based, C57BL/6 mice
Experimental: as §1, with “The cells were washed and cultured with CFSE-labeled CD8^+ OT1Tcells for 3 days.” left out
(§2) Mouse bone marrow-derived dendritic cells (mBMDCs) were prepared from wild type or Tlr4^−/− C57BL/6 mice. mBMDCs (10^5 cells per well) were plated in 96-well plates in 200 μl of complete RPMI 1640. […] The cells were stained for CD11c, and OVA uptake and expression of CD40 and CD86 in the CD11chi-gated population was determined by flow cytometry.

[5] = system: BMDC (C57BL/6); assay: IL-6 and IP-10 release by BMDC with 1V270 with or without 1Z105; assay type: cell-based, C57BL/6 mice; conditions: 1V270 0.025 or 0.1 μM with 1Z105 5 μM
Experimental: To evaluate whether 1Z105 can enhance the proinflammatory cytokine induction by 1V270, BMDC (C57BL/6) were incubated with 1V270 (0.025, or 0.1 μM) in the presence or absence of 1Z105 (5 μM). […] Antigen presenting function was evaluated using splenocytes prepared from OVA MHC class II-restricted alpha beta T cell receptor (TCR) transgenic mice OT-II. Splenocytes were cultured with OVA peptide (OVA323-339) for 3 days with 1Z105, or 1V270 alone or in combination. The frequency of intracellular (IC) IFNγ expressing CD4 T cells was determined by flow cytometric assay. Treatment with 1V270 alone increased intracellular IFNγ (3.7 and 6.8% by 25 and 100 nM, respectively).

[6] = system: myeloid dendritic cells; assay: Chemokine induction in human myeloid dendritic cells; assay type: cell-based; conditions: myeloid DC
Experimental: TLR7 expression in humans is limited to plasmacytoid DC and B cells, and different from the expression in mice. Conversely, TLR4 is abundantly expressed in different cell types in humans and mice. Thus, experiments were performed to determine whether 1Z105 and 1V270 could stimulate human umbilical vein cells (HUVEC) and myeloid dendritic cells.

[7] = system: rPR/8 HA; assay: rPR/8 HA single immunization: serum antibody ELISA; assay type: in vivo, BALB/c mice; conditions: for seroconversion to rPR/8 HA (total IgG, IgG1, IgG2a): 5 μg rPR/8 HA i.m. day 0, sera days 7, 14, 21; for total serum IgG reactive to antigen, long term / IgG2a/IgG1 ratio (Th1-Th2 immune balance): 5 μg rPR/8 HA; for total serum IgG reactive to antigen, long term: bled every 3 weeks up to 18 weeks; for IgG2a/IgG1 ratio (Th1-Th2 immune balance): single immunization
[8] = system: Mouse bone marrow-derived dendritic cells (mBMDCs); assay: Antigen (OVA-Alexa Fluor 488) uptake in mouse BMDCs, flow cytometry; assay type: cell-based, C57BL/6 mice; conditions: 10 μM 1Z105 or MPLA overnight, 37° C., OVA-488 last 30 min
Experimental: as §1, with “The cells were washed and cultured with CFSE-labeled CD8^+ OT1Tcells for 3 days.” left out
as §2

[9] = in EV3 and EV7; requested 0.22-0.44 mg/mL

In the case of `Cn1c2ccccc2c2nc(SCC(=O)NC3CCCCC3)n(-c3ccccc3)c(=O)c21` [Compound 1Z105], the “proliferation of OT-1 cells (antigen cross-presentation)” value [1] is reported as “induced proliferation of OT-1 cells”, the “purified CD4+ or CD8+ T cell proliferation” value [2] is reported as “enhanced purified CD4+ or CD8+T cell proliferation” and the “IL-8 release by PBMC” value [3] is reported as “minimal levels of IL-8”. For the same compound, the “surface expression of CD40 and CD86” value ([4]; TLR4-deficient (Tlr4-/-) BMDCs) was “not observed”, the “surface expression of CD40 and CD86” value ([4]; WT BMDCs, 1Z105 10 or 2 μM, MPLA 0.04 μg/ml, overnight) was “increased the surface expression of CD40 and CD86 at levels similar to that of MPLA” and the “IL-6 release induced by 1V270” value [5] was “significantly enhanced”. The “IP-10 release induced by 1V270” value [5] was “significantly enhanced”, the “induction of chemokines MCP-1 and IL-8” value [6] was “induced the chemokines MCP-1, and IL-8” and the “seroconversion to rPR/8 HA (total IgG, IgG1, IgG2a)” value [7] was “induced rapid seroconversion”. For the same compound, the “total serum IgG reactive to antigen, long term” value [7] was “induced a robust and sustained IgG response”, the “IgG2a/IgG1 ratio (Th1-Th2 immune balance)” value [7] was “produced predominately IgG1 in a Th2-type response” and the “difference in serum IgG endpoint titers among rHA doses (antigen sparing)” value ([7]; 5, 1 or 0.2 μg rPR/8 HA, 3 weeks after immunization) was “no significant difference”. The “OVA-associated CD11chi BMDCs (antigen uptake)” value [8] was “increased number”.
In the case of `CCCCCCCCC=CCCCCCCCC(=O)OCC(COP(=O)(O)OCCNC(=O)c1ccc(Cn2c(=O)[nH]c3c(N)nc(OCCOC)nc32)cc1)OC(=O)CCCCCCCC=CCCCCCCCC` (centres unmarked) [Compound 1V270], the “purified CD4+ or CD8+ T cell proliferation” value [2] is reported as “enhanced purified CD4+ or CD8+T cell proliferation”, the “solubility of 1V270” value [9] is reported as “achieved to the requested concentration” and the “IL-8 release by PBMC” value [3] is reported as “minimal levels of IL-8”. For the same compound, the “induction of chemokines MCP-1 and IL-8” value [6] was “minimal effects”, the “seroconversion to rPR/8 HA (total IgG, IgG1, IgG2a)” value [7] was “induced rapid seroconversion” and the “total serum IgG reactive to antigen, long term” value [7] was “induced a robust and sustained IgG response”. The “IgG2a/IgG1 ratio (Th1-Th2 immune balance)” value [7] was “induced both IgG1 and IgG2a in a more balanced Th1-Th2-type response”.
